Assay results published in patent US5773573A, “HIV peptides” (priority 1994, dated 1998).
Residues, ends and D or L forms follow the SMILES beside them.

Assay: White cell and T cell subset counts (CD4, CD8, NK) in HIV infected patient given HEP1
Type: in vivo, human
Details: patient three, oral HEP1 10 mg daily day 2-22
Method: The objective of this study was to determine in an HIV infected patient if the induction of immunological tolerance to HEP1 could reduce immune activation and HIV infection. The design of the first clinical experiment was to orally administer HEP1 to the patient in daily 10 mg doses (the lower end of the preferred dose range). This was then followed approximately three months later with a subcutaneous administration of HEP1 at a higher dose of 140 mg. To assess the therapeutic benefit of HEP1, the following disease progression markers were measured by taking blood samples before, during and after each trial and determining: HIV levels by a p24 antigen assay, HIV infectivity by a cellular TCID assay and immune activation by quantitating levels of various lymphocytes.
T cell subsets were measured by adding a whole blood sample to a 4.5 ml tube containing EDTA and staining with monoclonal antibodies to CD3, CD4 and CD8. The percentage of T cells in Peripheral Blood Lymphocytes were determined by flow-cytometric procedures. The numbers of CD4 and CD8 T cells were determined by obtaining total and differential white-cell counts and multiplying by the appropriate factor obtained on flow cytometry.
The following markers of HIV disease progression were assayed: p24Ag (the concentration of HIV p24 protein in picogram/ml in the blood), TCID (the infectivity of the HIV in the cells of blood sample measured by an in vitro cell culture assay in which a serial dilution of the sample was mixed with activated uninfected PBMC and the level of HIV infection determined by p24Ag assay), total white count (immune activation measured by the number of white cells per mm^3), CD4 (the number of CD4 positive cells per mm^3), CD8 (the number of CD8 positive cells per mm^3), NK (the number of Natural Killer cells per mm^3), Lymphocytes (the number of cells per mm^3), Monocytes (the number of cells per mm^3), and Granulocytes (the number of cells per mm^3). Normalised data was calculated by dividing each data point by the value of its data series on day 1 of the trail and multiplying by 100.

Structure (SMILES): CC(C)[C@H](NC(=O)[C@@H](NC(=O)[C@H](CCC(=O)O)NC(=O)[C@H](CCCNC(=N)N)NC(=O)[C@H](CCCNC(=N)N)NC(=O)[C@H](CCCCN)NC(=O)[C@H](CCCCN)NC(=O)[C@H](CCC(=O)O)NC(=O)[C@@H](N)[C@@H](C)O)[C@@H](C)O)C(=O)N[C@@H](CCC(=O)O)C(=O)N[C@@H](CCCNC(=N)N)C(=O)N[C@@H](CCC(=O)O)C(=O)N[C@@H](CCCCN)C(=O)N[C@@H](CCC(=O)O)C(=O)O [HEP1, NH2 ThrGluLysLysArgArgGluThrValGluArgGluLysGluCOOH] (H-TEKKRRETVEREKE-OH)
- % Granulocytes (day 1, before first dose): 76.1%
- % Granulocytes, normalised data (day 1 = 100) (day 1, before first dose): 100
- % Lymphocytes (day 1, before first dose): 17.8%
- % Lymphocytes, normalised data (day 1 = 100) (day 1, before first dose): 100
- % Monocytes (day 1, before first dose): 6.1%
- % Monocytes, normalised data (day 1 = 100) (day 1, before first dose): 100
- CD4 (day 1, before first dose): 80 cells per mm^3
- CD4, normalised data (day 1 = 100) (day 1, before first dose): 100
- CD8 (day 1, before first dose): 900 cells per mm^3
- CD8, normalised data (day 1 = 100) (day 1, before first dose): 100
- Granulocytes (day 1, before first dose): 6230 cells per mm^3
- Lymphocytes (day 1, before first dose): 1480 cells per mm^3
- Lymphocytes, normalised data (day 1 = 100) (day 1, before first dose): 100
- Monocytes (day 1, before first dose): 570 cells per mm^3
- Monocytes, normalised data (day 1 = 100) (day 1, before first dose): 100
- NK (day 1, before first dose): 30 cells per mm^3
- NK, normalised data (day 1 = 100) (day 1, before first dose): 100
- White count (day 1, before first dose): 8200 cells per mm^3
- White count, normalised data (day 1 = 100) (day 1, before first dose): 100
- % Granulocytes (day 7, during treatment): 81.4%
- % Granulocytes, normalised data (day 1 = 100) (day 7, during treatment): 107
- % Lymphocytes (day 7, during treatment): 15.5%
- % Lymphocytes, normalised data (day 1 = 100) (day 7, during treatment): 87
- % Monocytes (day 7, during treatment): 3.1%
- % Monocytes, normalised data (day 1 = 100) (day 7, during treatment): 51
- CD4 (day 7, during treatment): 80 cells per mm^3
- CD4, normalised data (day 1 = 100) (day 7, during treatment): 100
- CD8 (day 7, during treatment): 850 cells per mm^3
- CD8, normalised data (day 1 = 100) (day 7, during treatment): 94
- Granulocytes (day 7, during treatment): 6560 cells per mm^3
- Granulocytes, normalised data (day 1 = 100) (day 7, during treatment): 105
- Lymphocytes (day 7, during treatment): 1150 cells per mm^3
- Lymphocytes, normalised data (day 1 = 100) (day 7, during treatment): 78
- Monocytes (day 7, during treatment): 490 cells per mm^3
- Monocytes, normalised data (day 1 = 100) (day 7, during treatment): 86
- NK (day 7, during treatment): 30 cells per mm^3
- NK, normalised data (day 1 = 100) (day 7, during treatment): 100
- White count (day 7, during treatment): 8200 cells per mm^3
- White count, normalised data (day 1 = 100) (day 7, during treatment): 100
- % Granulocytes (day 14, during treatment): 76.8%
- % Granulocytes, normalised data (day 1 = 100) (day 14, during treatment): 101
- % Lymphocytes (day 14, during treatment): 16.8%
- % Lymphocytes, normalised data (day 1 = 100) (day 14, during treatment): 94
- % Monocytes (day 14, during treatment): 6.4%
- % Monocytes, normalised data (day 1 = 100) (day 14, during treatment): 105
- CD4 (day 14, during treatment): 90 cells per mm^3
- CD4, normalised data (day 1 = 100) (day 14, during treatment): 113
- CD8 (day 14, during treatment): 900 cells per mm^3
- CD8, normalised data (day 1 = 100) (day 14, during treatment): 100
- Granulocytes (day 14, during treatment): 5620 cells per mm^3
- Granulocytes, normalised data (day 1 = 100) (day 14, during treatment): 90
- Lymphocytes (day 14, during treatment): 1460 cells per mm^3
- Lymphocytes, normalised data (day 1 = 100) (day 14, during treatment): 99
- Monocytes (day 14, during treatment): 620 cells per mm^3
- Monocytes, normalised data (day 1 = 100) (day 14, during treatment): 109
- NK (day 14, during treatment): 40 cells per mm^3
- NK, normalised data (day 1 = 100) (day 14, during treatment): 133
- White count (day 14, during treatment): 7700 cells per mm^3
- White count, normalised data (day 1 = 100) (day 14, during treatment): 94
- % Granulocytes (day 21, during treatment): 76.2%
- % Granulocytes, normalised data (day 1 = 100) (day 21, during treatment): 100
- % Lymphocytes (day 21, during treatment): 18.6%
- % Lymphocytes, normalised data (day 1 = 100) (day 21, during treatment): 104
- % Monocytes (day 21, during treatment): 5.2%
- % Monocytes, normalised data (day 1 = 100) (day 21, during treatment): 85
- CD4 (day 21, during treatment): 80 cells per mm^3
- CD4, normalised data (day 1 = 100) (day 21, during treatment): 100
- CD8 (day 21, during treatment): 910 cells per mm^3
- CD8, normalised data (day 1 = 100) (day 21, during treatment): 101
- Granulocytes (day 21, during treatment): 5100 cells per mm^3
- Granulocytes, normalised data (day 1 = 100) (day 21, during treatment): 82
- Lymphocytes (day 21, during treatment): 1160 cells per mm^3
- Lymphocytes, normalised data (day 1 = 100) (day 21, during treatment): 78
- Monocytes (day 21, during treatment): 540 cells per mm^3
- Monocytes, normalised data (day 1 = 100) (day 21, during treatment): 95
- NK (day 21, during treatment): 40 cells per mm^3
- NK, normalised data (day 1 = 100) (day 21, during treatment): 133
- White count (day 21, during treatment): 6800 cells per mm^3
- White count, normalised data (day 1 = 100) (day 21, during treatment): 83
- % Granulocytes (day 28, after treatment): 74.5%
- % Granulocytes, normalised data (day 1 = 100) (day 28, after treatment): 98
- % Lymphocytes (day 28, after treatment): 20%
- % Lymphocytes, normalised data (day 1 = 100) (day 28, after treatment): 112
- % Monocytes (day 28, after treatment): 5.5%
- % Monocytes, normalised data (day 1 = 100) (day 28, after treatment): 90
- CD4 (day 28, after treatment): 80 cells per mm^3
- CD4, normalised data (day 1 = 100) (day 28, after treatment): 100
- CD8 (day 28, after treatment): 730 cells per mm^3
- CD8, normalised data (day 1 = 100) (day 28, after treatment): 81
- Granulocytes (day 28, after treatment): 4020 cells per mm^3
- Granulocytes, normalised data (day 1 = 100) (day 28, after treatment): 65
- Lymphocytes (day 28, after treatment): 1050 cells per mm^3
- Lymphocytes, normalised data (day 1 = 100) (day 28, after treatment): 71
- Monocytes (day 28, after treatment): 440 cells per mm^3
- Monocytes, normalised data (day 1 = 100) (day 28, after treatment): 77
- NK (day 28, after treatment): 20 cells per mm^3
- NK, normalised data (day 1 = 100) (day 28, after treatment): 67
- White count (day 28, after treatment): 5500 cells per mm^3
- White count, normalised data (day 1 = 100) (day 28, after treatment): 67
- % Granulocytes (day-69, before treatment): 80.4%
- % Granulocytes, normalised data (day 1 = 100) (day-69, before treatment): 106
- % Lymphocytes (day-69, before treatment): 15.4%
- % Lymphocytes, normalised data (day 1 = 100) (day-69, before treatment): 87
- % Monocytes (day-69, before treatment): 4.2%
- % Monocytes, normalised data (day 1 = 100) (day-69, before treatment): 96
- CD4 (day-69, before treatment): 90 cells per mm^3
- CD4, normalised data (day 1 = 100) (day-69, before treatment): 113
- CD8 (day-69, before treatment): 850 cells per mm^3
- CD8, normalised data (day 1 = 100) (day-69, before treatment): 94
- Granulocytes (day-69, before treatment): 6000 cells per mm^3
- Granulocytes, normalised data (day 1 = 100) (day-69, before treatment): 96
- Lymphocytes (day-69, before treatment): 1260 cells per mm^3
- Lymphocytes, normalised data (day 1 = 100) (day-69, before treatment): 85
- Monocytes (day-69, before treatment): 630 cells per mm^3
- Monocytes, normalised data (day 1 = 100) (day-69, before treatment): 111
- NK (day-69, before treatment): 20 cells per mm^3
